From patent US9725445B2, “Cycloalkyl nitrile pyrazolo pyridones as Janus kinase inhibitors” (Merck Sharp & Dohme Corp., priority 2013, dated 2017)
Where a name gives a salt, the structure may show the parent alone.

How the values were obtained:
[1] = target: JAK2 (Homo sapiens (Human), UniProt O60674); experiment: Jak biochemical HTRF assay, JAK2; details: HTRF biochemical assay, recombinant GST-tagged catalytic domain; read-out: JAK2 IC50
[2] = target: JAK1 (Homo sapiens (Human), UniProt P23458); experiment: Jak biochemical HTRF assay, JAK1; details: HTRF biochemical assay, recombinant GST-tagged catalytic domain; read-out: JAK1 IC50
Sequence of JAK1 (P23458 875-1153): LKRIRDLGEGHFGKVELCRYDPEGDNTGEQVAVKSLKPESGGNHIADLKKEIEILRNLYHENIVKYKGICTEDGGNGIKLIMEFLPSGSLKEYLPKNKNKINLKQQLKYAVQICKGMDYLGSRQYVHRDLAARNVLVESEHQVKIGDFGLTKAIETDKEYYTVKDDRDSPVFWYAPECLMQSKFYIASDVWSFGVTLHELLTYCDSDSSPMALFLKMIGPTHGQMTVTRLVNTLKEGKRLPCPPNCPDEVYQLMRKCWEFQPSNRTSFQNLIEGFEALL

Sequence of JAK2 (O60674 849-1124): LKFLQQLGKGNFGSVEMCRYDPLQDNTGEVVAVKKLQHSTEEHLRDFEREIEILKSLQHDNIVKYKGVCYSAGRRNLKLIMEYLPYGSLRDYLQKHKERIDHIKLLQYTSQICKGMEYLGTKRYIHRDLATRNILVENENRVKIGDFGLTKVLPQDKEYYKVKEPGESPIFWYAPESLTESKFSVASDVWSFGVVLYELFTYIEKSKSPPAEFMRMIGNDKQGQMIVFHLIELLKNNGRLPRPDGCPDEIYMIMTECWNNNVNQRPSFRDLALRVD

| SMILES | IC50 [1] | IC50 [2] |
| --- | --- | --- |
| CC(C)(C)OC(=O)C(C)(C)N1Cc2cc(Nc3nn([C@H]4CCCC[C@@H]4C#N)c4cc[nH]c(=O)c34)ccc2S1(=O)=O [Example 3-152, tert-butyl 2-[5-({1-[(1S,2S)-2-cyanocyclohexyl]-4-oxo-4,5-dihydro-1H-pyrazolo[4,3-c]pyridin-3-yl}amino)-1,1-dioxido-1,2-benzisothiazol-2(3H)-yl]-2-methylpropanoate] | 770 pM | 100 pM |
| CN(C)[C@@H]1CC[C@H](n2nc(Nc3ccc(OC(F)(F)F)cc3)c3c(=O)[nH]ccc32)[C@@H](C#N)C1 [Example 5-25, (1S,2S,5R)-5-(dimethylamino)-2-(4-oxo-3-((4-(trifluoromethoxy)phenyl)amino)-4,5-dihydro-1H-pyrazolo[4,3-c]pyridin-1-yl)cyclohexanecarbonitrile] | 22000 pM | 960 pM |
| N#C[C@H]1CCCC[C@@H]1n1nc(Nc2cccc(Cn3ccnn3)c2)c2c(=O)[nH]ccc21 [Example 3-26, (1S,2S)-2-(4-oxo-3-{[3-(1H-1,2,3-triazol-1-ylmethyl)phenyl]amino}-4,5-dihydro-1H-pyrazolo[4,3-c]pyridin-1-yl)cyclohexanecarbonitrile] | 490 pM | 100 pM |
| N#C[C@H]1CCCC[C@@H]1n1nc(Nc2cccc(Cn3nccn3)c2)c2c(=O)[nH]ccc21 [Example 3-28, (1S,2S)-2-(4-oxo-3-{[3-(2H-1,2,3-triazol-2-ylmethyl)phenyl]amino}-4,5-dihydro-1H-pyrazolo[4,3-c]pyridin-1-yl)cyclohexanecarbonitrile] | 930 pM | 1000 pM |
| CC(C)(C)OC(=O)NCc1cc(Nc2nn([C@H]3CCCC[C@@H]3C#N)c3cc[nH]c(=O)c23)ccc1F [Example 3-35, tert-butyl [5-({1-[(1S,2S)-2-cyanocyclohexyl]-4-oxo-4,5-dihydro-1H-pyrazolo[4,3-c]pyridin-3-yl}amino)-2-fluorobenzyl]carbamate] | 4700 pM | 3200 pM |
| CC(C)(C)[S@+]([O-])N[C@H](c1cccc(Nc2nn([C@H]3CCCC[C@@H]3C#N)c3cc[nH]c(=O)c23)c1)C(F)(F)F [Example 3-42, N-{(1R)-1-[3-({1-[(1S,2S)-2-cyanocyclohexyl]-4-oxo-4,5-dihydro-1H-pyrazolo[4,3-c]pyridin-3-yl}amino)phenyl]-2,2,2-trifluoroethyl}-2-methylpropane-2-sulfinamide] | 13000 pM | 460 pM |
| Cn1ccc(NC(=O)Cc2cccc(Nc3nn([C@H]4CCCC[C@@H]4C#N)c4cc[nH]c(=O)c34)c2)n1 [Example 3-11, 2-[3-({1-[(1S,2S)-2-cyanocyclohexyl]-4-oxo-4,5-dihydro-1H-pyrazolo[4,3-c]pyridin-3-yl}amino)phenyl]-N-(1-methyl-1H-pyrazol-3-yl)acetamide] | 3300 pM | 410 pM |
| CN1Cc2cc(Nc3nn([C@H]4CCC[C@@H]4C#N)c4cc[nH]c(=O)c34)ccc2S1(=O)=O [Example 3-102, (1S,2S)-2-{3-[(2-methyl-1,1-dioxido-2,3-dihydro-1,2-benzisothiazol-5-yl)amino]-4-oxo-4,5-dihydro-1H-pyrazolo[4,3-c]pyridin-1-yl}cyclopentanecarbonitrile] | 660 pM | 51 pM |
| CC(C)(C)OC(=O)CC(C)(C)N1Cc2cc(Nc3nn([C@H]4CCCC[C@@H]4C#N)c4cc[nH]c(=O)c34)ccc2S1(=O)=O [Example 3-155, tert-butyl 3-[5-({1-[(1S,2S)-2-cyanocyclohexyl]-4-oxo-4,5-dihydro-1H-pyrazolo[4,3-c]pyridin-3-yl}amino)-1,1-dioxido-1,2-benzisothiazol-2(3H)-yl]-3-methylbutanoate] | 710 pM | 120 pM |

Other lines, results leading:

| IC50 [1] | IC50 [2] | SMILES |
| --- | --- | --- |
| 590 pM | 220 pM | N#C[C@H]1CCC[C@@H]1n1nc(Nc2ccc(C(N)C(F)(F)F)cc2)c2c(=O)[nH]ccc21 (single isomer, unassigned) [Example 3-137, (1S,2S)-2-[3-({4-[(1S or 1R)-1-amino-2,2,2-trifluoroethyl]phenyl}amino)-4-oxo-4,5-dihydro-1H-pyrazolo[4,3-c]pyridin-1-yl]cyclopentanecarbonitrile] |
| 1600 pM | 390 pM | CN1Cc2ccc(Nc3nn([C@H]4CCCC[C@@H]4C#N)c4cc[nH]c(=O)c34)cc2C1 [Example 3-64, (1S,2S)-2-{3-[(2-methyl-2,3-dihydro-1H-isoindol-5-yl)amino]-4-oxo-4,5-dihydro-1H-pyrazolo[4,3-c]pyridin-1-yl}cyclohexanecarbonitrile] |
| 820 pM | 460 pM | N#C[C@H]1CCCC[C@@H]1n1nc(Nc2ccc(CN)cc2)c2c(=O)[nH]ccc21 [Example 6-5, (1S,2S)-2-(3-((4-(aminomethyl)phenyl)amino)-4-oxo-4,5-dihydro-1H-pyrazolo[4,3-c]pyridin-1-yl)cyclohexanecarbonitrile] |
| 570 pM | 380 pM | N#C[C@H]1CCCC[C@@H]1n1nc(Nc2ccc([C@@H]3C[C@H]4CC[C@@H](C3)N4)cc2)c2c(=O)[nH]ccc21 [Example 20-1, (1S,2S)-2-(3-((4-((1R,3S,5S)-8-azabicyclo[3.2.1]octan-3-yl)phenyl)amino)-4-oxo-4,5-dihydro-1H-pyrazolo[4,3-c]pyridin-1-yl)cyclohexanecarbonitrile hydrochloride] |
| 320 pM | 360 pM | N#C[C@H]1CCCC[C@@H]1n1nc(Nc2ccc(C3(N)CCC3)cc2)c2c(=O)[nH]ccc21 [Example 12-2, (1S,2S)-2-(3-((4-(1-aminocyclobutyl)phenyl)amino)-4-oxo-4,5-dihydro-1H-pyrazolo[4,3-c]pyridin-1-yl)cyclohexanecarbonitrile] |
| 400 pM | 110 pM | CC(C)S(=O)(=O)c1ccc(Nc2nn([C@H]3CCC[C@@H]3C#N)c3cc[nH]c(=O)c23)cc1 [Example 3-105, (1S,2S)-2-[3-({4-[(1-methylethyl)sulfonyl]phenyl}amino)-4-oxo-4,5-dihydro-1H-pyrazolo[4,3-c]pyridin-1-yl]cyclopentanecarbonitrile] |
| 1200 pM | 250 pM | N#C[C@H]1CCCC[C@@H]1n1nc(Nc2cccc(Cn3cnnc3)c2)c2c(=O)[nH]ccc21 [Example 3-51, (1S,2S)-2-(4-oxo-3-{[3-(4H-1,2,4-triazol-4-ylmethyl)phenyl]amino}-4,5-dihydro-1H-pyrazolo[4,3-c]pyridin-1-yl)cyclohexanecarbonitrile] |
| 2500 pM | 77 pM | CC1c2cc(Nc3nn([C@H]4CCCC[C@@H]4C#N)c4cc[nH]c(=O)c34)ccc2S(=O)(=O)N1C (single isomer, unassigned) [Example 3-126, (1S,2S)-2-(3-(((R or S)-2,3-dimethyl-1,1-dioxido-2,3-dihydrobenzo[d]isothiazol-5-yl)amino)-4-oxo-4,5-dihydro-1H-pyrazolo[4,3-c]pyridin-1-yl)cyclohexanecarbonitrile] |
| 680 pM | 290 pM | CN(C(C)(C)C)S(=O)(=O)c1ccc(Nc2nn([C@H]3CCCC[C@@H]3C#N)c3cc[nH]c(=O)c23)cc1 [Example 3-142, N-tert-butyl-4-({1-[(1S,2S)-2-cyanocyclohexyl]-4-oxo-4,5-dihydro-1H-pyrazolo[4,3-c]pyridin-3-yl}amino)-N-methylbenzenesulfonamide] |
